Assay results taken from article PMC11339798, “Dual inhibitors of Pseudomonas aeruginosa virulence factors LecA and LasB” (Chemical Science, 2024).

Assays:
[1] = Disulfide formation assay: thiol stability in P. aeruginosa culture supernatant (LC-MS); assay type: in vitro ADME; conditions: Pseudomonas aeruginosa, pH 7.4, P. aeruginosa culture supernatant, 37 °C, read-out: thiol half-life (conversion into disulfide)
Text: Disulfide formation in the presence of P. aeruginosa culture supernatant was studied for the two inhibitors 11 and 12 and analyzed by liquid chromatography-mass spectrometry (LC-MS) (Fig. 3B). Disulfides 26 and 27 were synthesized via oxidation with H2O2 in DMSO/H2O and used as reference compounds for the stability assay (Fig. 3A). […] The separation of those two peaks of the benzylated derivative 26 using preparative HPLC gave 26a and 26b (m/z of 901.28, Fig. S1 ^†).
In the presence of the bacterial culture supernatant of P. aeruginosa, the conversion of thiols 11 and 12 into the corresponding disulfides 26 and 27 was monitored at 37 °C and thiol half-lives of 48 min for 11 and 70 min for 12 were determined (Fig. 3B).
Disulfide formation assay
The stability of two thiols 11 and 12 and their ability to form the corresponding disulfides was analyzed by HPLC-MS. […] Samples were drawn over 4.5 hours and analyzed by LC-MS using a RP-18 column 100/2 Nucleoshell RP18plus, 2.7 μm from Macherey-Nagel, Germany (H2O/MeCN + 0.1% formic acid, 15 – 55% MeCN, retention time (t R) 5.8 min (11 or 12), 6.1 min and 6.3 min (disulfide products 26 or 27) on a Thermo Dionex Ultimate 3000 HPLC coupled to a Bruker amaZon SL mass spectrometer, with UV detection at 254 nm). Thiol half-lives were determined by analysis of the obtained graphs and values of 80 min for 11 and 46 min for 12 were obtained […]

A549 cells = assay: Inhibition of LasB-dependent cytotoxicity of P. aeruginosa PAO1 culture supernatant on A549 cells (MTT); assay type: cell-based, human; conditions: for A549 cell viability under PAO1 culture supernatant: 10% (v/v) PAO1 supernatant
Method: Next, we set out to analyze the ability of the dual inhibitor 12 and the individual treatment or combination of galactoside 1 and thiol 2 to reduce LasB-dependent cytotoxicity from P. aeruginosa PAO1 culture supernatant on A549 cells. None of the investigated compounds influenced A549 cell viability at 100 μM in the absence of bacterial culture supernatant (Fig. S4 ^†). […]
In vitro evaluation of 12 and a combination of 1 and 2 using P. aeruginosa culture supernatant and A549 cells in a cell viability assay
The A549 cell line, derived from human lung adenocarcinoma, was grown in Dulbecco's Modified Eagle Medium (DMEM) supplemented with 10% Fetal Bovine Serum (FBS) and 1% penicillin-streptomycin. The cells were cultured following standard protocols for cell […]
To prepare the bacterial culture supernatant, individual flasks containing 15 mL of lysogeny broth (LB) culture medium were inoculated with PAO1 or PAO1 ΔlasB strains. Culture flasks were placed on a shaker and incubated at 37 °C and 180 rpm overnight for 18 hours. Following incubation, the bacterial cultures were subjected to centrifugation at 4 °C and 5000 rpm for […]
10 min, facilitating the separation of bacterial cells from the supernatant. The latter was filtered through a 0.22 µm sterile filter and stored at –80 °C until further use.
In a flat bottom 96-well plate (Corning™ Costar™), each well was seeded with 2.5–3.5*10 3 cells in 100 µL DMEM/FCS and then incubated at a temperature of 37 °C with 5% CO2 for 24 hours. Then, compounds 12 and 1 combined with 2 in concentrations of 100 µM, 10 µM, and 1 µM were mixed with 10% (v/v) of culture supernatant of P. aeruginosa PAO1 (DSM 22644, ATCC 15692) in DMEM/FCS. To minimize the potential negative effect of DMSO, the compound was initially dissolved in 99.9% DMSO, and a final assay concentration of 0.5% DMSO was applied. Additionally, the cells were exposed to 10% (v/v) PAO1 ΔlasB culture supernatant to analyze the effect caused by LasB, while DMEM/FCS without any treatment served as a control. The plates were then incubated at 37 °C with 5% CO2 for 24 hours before conducting the MTT assay.
To assess cell viability, the medium in the well plates was aspirated and a single wash was performed using 100 µL of phosphate buffered saline, pH 7.4 (PBS). A solution of 5 mg MTT (3-(4,5-dimethylthiazol-2-yl)-2,5-diphenyl tetrazolium bromide) per mL PBS was prepared and diluted to a concentration of 10% (v/v) in DMEM/FCS. Subsequently, 100 µL of this MTT solution was added to each well, and the plates were incubated at 37 °C for 3 hours with 5%
CO2. After incubation, the MTT solution was carefully removed, and the formazan crystals were dissolved by adding 150 µL of lysis solution (250 mL DMSO, 25 g SDS, and 1.25 mL AcOH) to each well. The plates were then incubated for an additional 30 min at 37 °C and then, the UV absorbance was measured using a PHERAstar microplate reader. The test samples were read at a wavelength of 550 nm, while the blank was read at 620 nm. At last, the data were statistically analyzed and presented graphically using GraphPad Prism 9 (Figure S4 and S5).
Evaluation of compounds 1, 2 and 12 in inhibiting LecA adhesion to A549 cells via […]
The A549 cell line were cultured following the protocols for cell maintenance described above.
In a flat-bottom cell culture black 96-well plate (Greiner Bio-One, #Cat 655090) each well was seeded with 1*104 cells in 100 µL DMEM/FCS and subsequently, incubated overnight at 37 °C with 5% CO2. […]

Row | Structure (SMILES) | half-life at 1.25 mM [1] | A549 cell viability under PAO1 culture supernatant (A549 cells; 1 μM compound) | A549 cell viability under PAO1 culture supernatant (A549 cells; 10 μM compound) | A549 cell viability under PAO1 culture supernatant (A549 cells; 100 μM compound) | cytotoxicity of PAO1 culture supernatant in presence of compound (A549 cells; 100 μM compound, compared with LasB-deficient strain control)
1 | O=C(Nc1ccc(S[C@@H]2O[C@H](CO)[C@H](O)[C@H](O)[C@H]2O)cc1)C(S)Cc1ccccc1 (stereo partly drawn) [Compound 11] | 1.33 h | – | – | – | –
2 | CC(C)CC(S)C(=O)Nc1ccc(S[C@@H]2O[C@H](CO)[C@H](O)[C@H](O)[C@H]2O)cc1 (stereo partly drawn) [Compound 12] | 0.767 h | statistically significant beneficial effect on cell viability | increase in cell viability compared to the combination of the individual LasB (2) and LecA (1) inhibitors | increase in cell viability compared to the combination of the individual LasB (2) and LecA (1) inhibitors | reached that of the LasB-deficient strain
